Test results taken from patent US5869494A, “Uses for barbituric acid analogs” (priority 1997, dated 1999).

How the values were obtained:
Format in all cases: cell-based
[1] = test system: UO-31; experiment: NCI tumor cell line screen (SRB assay); design: activity: dose or concentration left out as unconfirmed; details: Homo sapiens, read-out: PERCENT GROWTH
Procedure: (§1) The National Cancer Institute carried out the studies at the direction of the present inventor.
(§2) In the tests, the National Cancer Institute used the SRB (sulforhodamine B) assay as described by Skehan et al., (Journal of the National Cancer Institute, 82:13, Jul. 4, 1990, 1107-1112). Briefly, the assay is as follows. TCA-fixed cells were stained for 30 minutes with 0.4% (wt/vol) SRB dissolved in 1% acetic acid. At the end of the staining period, SRB was removed and cultures were quickly rinsed four times with 1% acetic acid to remove unbound dye. The acetic acid was poured directly into the culture wells from a beaker. […] Residual wash solution was removed by sharply flicking plates over a sink, which ensured the complete removal of rinsing solution. […] After being rinsed, the cultures were air dried until no standing moisture was visible. Bound dye was solubilized with 10 mM unbuffered Tris base (pH 10.5) for 5 minutes on a gyratory shaker.
(§3) Optical density (OD) was read in either a UVmax microtiter plate reader (Molecular Devices, Menlo Park, Calif.) or a Beckman DU-70 spectrophotometer. For maximum sensitivity, OD was measured at 564 nm. Because readings were linear with dye concentrations only below 1.8 OD units, however, suboptimal wavelengths were generally used, so that all samples in an experiment remained within the linear OD range. With most cell lines, wavelengths of approximately 490-530 nm worked well for this purpose.
(§4) Nine different non-small cell lung carcinoma cell lines, six different colon carcinoma cell lines, six different CNS (central nervous system) carcinoma cell lines, seven different melanoma cell lines, six different ovarian carcinoma cell lines, and eight different renal carcinoma cell lines were tested.

[2] = test system: CAKI-1; experiment: NCI tumor cell line screen (SRB assay); design: activity: dose or concentration left out as unconfirmed; details: Homo sapiens, read-out: PERCENT GROWTH
Procedure: as §1, §2, §3, §4

[3] = test system: KM12; experiment: NCI tumor cell line screen (SRB assay); design: activity: dose or concentration left out as unconfirmed; details: Homo sapiens, read-out: PERCENT GROWTH
Procedure: as §1, §2, §3, §4

[4] = test system: OVCAR-5; experiment: NCI tumor cell line screen (SRB assay); design: activity: dose or concentration left out as unconfirmed; details: Homo sapiens, read-out: PERCENT GROWTH
Procedure: as §1, §2, §3, §4

[5] = test system: SK-OV-3; experiment: NCI tumor cell line screen (SRB assay); design: activity: dose or concentration left out as unconfirmed; details: Homo sapiens, read-out: PERCENT GROWTH
Procedure: as §1, §2, §3, §4

[6] = test system: OVCAR-3; experiment: NCI tumor cell line screen (SRB assay); design: activity: dose or concentration left out as unconfirmed; details: Homo sapiens, read-out: PERCENT GROWTH
Procedure: as §1, §2, §3, §4

[7] = test system: human immunodeficiency virus (HIV-1); experiment: Inactivation of cell free HIV-1 (MT-4 indicator cells); details: 2 h treatment, MT-4 + HIV-1, day 7
Procedure: After 2 h at 37° C., treated and control HIV-1 samples were added to the indicator MT-4 cells (cultured human T cells) in the presence of 2 μg/ml POLYBRENE™ for 2 h. After washing, MT-4 cells were cultured in the presence of drug-treated or control (untreated) HIV-1. Cell viability of MT-4 cells was determined by the trypan blue dye exclusion method.

[8] = test system: lung carcinoma (non-small cell); experiment: Human tumor cloning system, lung carcinoma (non-small cell); details: responsive = at least 50% inhibition of tumor colony formation
Procedure: Through the initial work of Hamburger and Salmon (1977 a,b), it is possible to culture human tumors using a two-layer soft agar system. This culture system, called the human tumor cloning system, was initially utilized to select the most appropriate anticancer agent for an individual patient's tumor. […] In an in vitro-in vivo correlation study involving 800 patients retrospectively, it was determined that the true positive rate for this assay was 70%, while the true negative rate for the assay was 98% (Von Hoff et al., 1981). In a more recent prospective clinical trial of the cloning system involving 604 patients, the percent true positive for the assay was 64%, while the percent true negative for the assay was 86% (Von Hoff et al., 1983). […] This system was used to study the response of compound C1 for breast cancer and non-small cell lung carcinoma.
Collection and preparation of tumor cells: After obtaining informed consent in accordance with federal and institutional guidelines, malignant effusions, ascites and bone marrow aspirates containing tumor cells as well as solid tumor specimens were collected from patients undergoing procedure carried out as a part of their diagnostic workup or as part of treatment for their disease. […] The viability of cell suspensions thus obtained was determined with trypan blue.
Tumor cells to be cloned were suspended in 0.3% agar in enriched CMRL 1066 medium (Gibco, Grand Island, N.Y.) supplemented with 15% heat-inactivated horse serum, penicillin (100 units/ml), streptomycin (2 mg/ml) glutamine (2 mM), insulin (3 units/ml), asparagine (0.6 mg/ml), and HEPES buffer (2 mM). […] After an incubation period of 14 days, plates were removed and the number of colonies were counted in each plate. The number of colonies (defined as >50 cells) formed were compared in drug treated and untreated (control) plates and the percent colonies surviving at each drug dose tested was then calculated as a percentage of control. […]

## CCCCN1C(=O)CC(=O)N(CCCC)C1=S [Compound C1, 4,6(1H, 5H)-pyrimidinedione, 1,3-dibutyldihydro-2-thioxo]
[1]; 10^-3.0 Molar
  activity: -75%
[1]; 10^-4.0 Molar
  activity at 100 µM: 63%
[1]; 10^-5.0 Molar
  activity at 10 µM: 92%
[1]; 10^-6.0 Molar
  activity at 1 µM: 99%
[1]; 10^-7.0 Molar
  activity at 0.1 µM: 92%
[2]; 10^-3.0 Molar
  activity: -100%
[2]; 10^-4.0 Molar
  activity at 100 µM: 92%
[2]; 10^-5.0 Molar
  activity at 10 µM: 73%
[2]; 10^-6.0 Molar
  activity at 1 µM: 85%
[2]; 10^-7.0 Molar
  activity at 0.1 µM: 103%
[3]; 10^-3.0 Molar
  activity: -90%
[3]; 10^-4.0 Molar
  activity at 100 µM: 76%
[3]; 10^-5.0 Molar
  activity at 10 µM: 102%
[3]; 10^-6.0 Molar
  activity at 1 µM: 101%
[3]; 10^-7.0 Molar
  activity at 0.1 µM: 101%
[4]; 10^-3.0 Molar
  activity: -97%
[4]; 10^-4.0 Molar
  activity at 100 µM: 97%
[4]; 10^-5.0 Molar
  activity at 10 µM: 99%
[4]; 10^-6.0 Molar
  activity at 1 µM: 98%
[4]; 10^-7.0 Molar
  activity at 0.1 µM: 102%
[5]; 10^-3.0 Molar
  activity: -100%
[5]; 10^-4.0 Molar
  activity at 100 µM: 85%
[5]; 10^-5.0 Molar
  activity at 10 µM: 92%
[5]; 10^-6.0 Molar
  activity at 1 µM: 90%
[5]; 10^-7.0 Molar
  activity at 0.1 µM: 95%
[6]; 10^-3.0 Molar
  activity: -93%
[6]; 10^-4.0 Molar
  activity at 100 µM: 89%
[6]; 10^-5.0 Molar
  activity at 10 µM: 110%
[6]; 10^-6.0 Molar
  activity at 1 µM: 114%
[6]; 10^-7.0 Molar
  activity at 0.1 µM: 110%
[7]; 125 μg/ml
  % Inactivation Day 7: 62%
[7]; Human immunodeficiency virus 1, 168 h, 75 μg/ml
  killing at 75 µg/mL: 7.7%
[7]; Human immunodeficiency virus 1, 168 h, 100 μg/ml
  killing at 100 µg/mL: 34.1%
[7]; Human immunodeficiency virus 1, 168 h, 125 μg/ml
  killing at 125 µg/mL: 62.6%
[8]; 75 μg/ml
  # responsive tumors/total # evaluated: 0/1
[8]; 100 μg/ml
  # responsive tumors/total # evaluated: 1/1
[8]; 125 μg/ml
  # responsive tumors/total # evaluated: 1/1
